Measurements: patent US20180236089A1, “RADIATION EMITTING PEPTIDE NUCLEIC ACID CONJUGATES AND USES THEREOF FOR DIAGNOSIS, IMAGING, AND TREATMENT OF DISEASES, CONDITIONS AND DISORDERS” (Yissum Research Development Company of the Hebrew …, priority 2015, published 2018)
“And” between values parts separate entries of the source, which are not always exact repeats. Equal entries are not always repeated. Where no end group is shown, it is not given here. [ ]: non-standard residue; d: D form. BisQ = dye (BisQ) placed in the PNA in place of a base

Columns and labels:
[1] = UV-Vis absorption of BisQ, TO and PNA FIT probes, alone or hybridized to DNA; assay type: physicochemical; details: for λmaxabs: UV-Vis spectrum, maximal absorption
BxPC-3 cells = assay: Hybridization and imaging in living cells (confocal microscopy), BxPC-3; assay type: cell-based, human; details: BxPC-3 expressing wild type KRAS, 0.5 μM, 3 hours
Description: (§1) Three cell lines were used: Panc-1, BxPC-3 (human pancreatic carcinoma, epithelial-like), and HT-29 (human colon adenocarcinoma grade II). Cell lines were purchased from the American Type Culture Collection (ATCC, Manassas, Va., USA). Panc-1 and HT-29 expressing mutated and wild type KRAS, respectively, were cultured (37° C., 5% CO2), in DMEM medium and supplemented with 10% fetal calf serum, 2 mM L-glutamine, and 0.1 mg/mL Streptomycin (Beit Haemek Biological Industries, Israel). BxPC-3 cells expressing wild type KRAS were cultured in RPMI 1640 medium supplemented with 10% fetal calf serum, 2 mM L-glutamine, and 0.1 mg/mL Streptomycin.
(§2) Twenty four hours prior to PNA addition, Panc-1, HT-29, and BxPC-3 were plated separately on chamber slides (Ibidi GmbH, Munich, Germany) until reaching 70-80% confluence.
(§3) Before adding the PNAs, the medium was replaced and the cells were incubated (37° C., humidified atmosphere containing 5% CO2) with 0.5 μM of PNA1 and PNA2 in complete medium. Cells were washed with PBS (×3) prior to cell imaging and the intracellular fluorescence was measured after 3 hours by confocal microscopy. Design and synthesis of a new surrogate base (BisQ) with the unique feature of far-red emission. BisQ was introduced into PNAs that targets the mutated kRAS oncogene.

Panc-1 cells = assay: Hybridization and imaging in living cells (confocal microscopy), Panc-1; assay type: cell-based, human; details: Panc-1 expressing mutated KRAS, 0.5 μM, 3 hours
Description: as §1, §2, §3

HT-29 cells = assay: Hybridization and imaging in living cells (confocal microscopy), HT-29; assay type: cell-based, human; details: HT-29 expressing wild type KRAS, 0.5 μM, 3 hours
Description: as §1, §2, §3

Compound | εmax [1] | λmaxabs [1] | intracellular red fluorescence (BxPC-3 cells) | intracellular red fluorescence (Panc-1 cells) | intracellular red fluorescence (HT-29 cells)
CN1C(=Cc2cc[n+](C)c3ccccc23)Sc2ccccc21 [TO, thiazole orange, reference compound] | 43,000 M^−1cm^−1 | 505 nm | – | – | –
(D-Lys)4-CCTCGACT[BisQ]CCGCATCC-NH2 (chain 1 [dK][dK][dK][dK]CCTCGACT-BisQ; numbers in words are those of the source; cysteine pairing not given here; also: PNA (peptide nucleic acid), BisQ joins chain 1 and chain 2 within one strand) [PNA2, BisQ paired with T; PNA FIT probe targeting mutated KRAS] | 82,219 M^−1cm^−1 | 593 nm | red emission solely in Panc-1 cells | red emission solely in Panc-1 cells | red emission solely in Panc-1 cells
(D-Lys)4-CCTCGA[BisQ]TACCGCATCC-NH2 (chemistry not fully specified) [PNA1, BisQ paired with G; PNA FIT probe targeting mutated KRAS] | 83,000 M^−1cm^−1 | 591 nm and 588 nm | – | – | –
Fmoc-Aeg(Dy)-OH [BisQ] | 41,370 M^−1cm^−1 | 591 nm | – | – | –
